Laboratory results from patent publication US10428151B2, “Treatment of hematologic malignancies with an anti-CXCR4 antibody” (BRISTOL-MYERS SQUIBB COMPANY, priority 2011, dated 2019).
“Also recorded” adds a separate entry of the source.

How the values were obtained:
[1] = tested on: Ramos cells; experiment: Ramos cell proliferation, Cell-Titer-Glo; type: cell-based, human; settings: 72 hours
Experimental: Ramos cells were suspended at 1×10^5 cells/mL in growth media, incubated with the relevant antibodies, including isotype controls, and other test agents and cultured for 72 hours at 37° C. Cell-Titer-Glo (Promega) was added to wells, mixed, and incubated at room temperature for 10 minutes. The plate was read on a GloMax Luminometer (Promega).

[2] = tested on: Ramos cells; experiment: Apoptosis of Ramos cells, Annexin V-FITC/PI, vs AMD3100; type: cell-based, human; settings: 24 hours, antibody 10 μg/mL, AMD3100 6 μM
Experimental: Cells were stained with Annexin V-FITC and propidium iodide (A). The percent of cells positive for Annexin V only or both Annexin V and PI double positive was determined (B).
Cells were stained with Annexin V-FITC and propidium iodide (PI).

[3] = tested on: OPM-2 cells; experiment: OPM-2 MM xenograft in SCID mice
Description: OPM-2 cells (10 million) were implanted into SCID mice as described.

[4] = tested on: RPMI-8226 cells; experiment: RPMI-8226 MM xenograft in SCID mice; type: in vivo
Experimental: The mice were randomized (n=8) when the tumor volume reached approximately 20 mm^3, dosed on Days 0, 3, 7, 10 and 14 with MDX-1338 (10 mg/kg/dose) alone or in combination with 50 mg/kg lenalidomide or in combination with 0.8 mg/kg bortezomib.

[5] = tested on: Bortezomib-resistant JJN-3R cells; experiment: JJN-3R MM xenograft in SCID mice; type: in vivo; settings: lenalidomide 50 mg/kg/dose IP, bortezomib 0.8 mg/kg/dose IV
[6] = tested on: MOLP-8 cells; experiment: MOLP-8 MM xenograft in SCID mice; type: in vivo; settings: for efficacy in MOLP8 tumors: lenalidomide 50 mg/kg, bortezomib 0.8 mg/kg, BMS-936564 10 mg/kg/dose
Experimental: In all the experiments, the mice were injected intraperitoneally on Days 0 and 7 with an IgG4 isotype control and a PBS vehicle control.

[7] = tested on: parental JJN-3 cells; experiment: JJN-3 MM xenograft in SCID mice; type: in vivo; settings: bortezomib 0.8 mg/kg/dose IV, lenalidomide 50 mg/kg/dose IP
Description: 5 million JJN-3 cells/mouse were implanted into SCID mice and the mice were randomized into groups of 8 when the tumor volume reached approximately 77 mm^3.

[8] = tested on: MM.1S cells; experiment: MM.1S MM xenograft in SCID mice; type: in vivo
[9] = biological target: T1, CXCR4 (Homo sapiens, UniProt P61073); experiment: CXCL12-induced migration of CEM cells (first experiment); type: cell-based; settings: 5 nM CXCL12α
T1 sequence (P61073 whole entry): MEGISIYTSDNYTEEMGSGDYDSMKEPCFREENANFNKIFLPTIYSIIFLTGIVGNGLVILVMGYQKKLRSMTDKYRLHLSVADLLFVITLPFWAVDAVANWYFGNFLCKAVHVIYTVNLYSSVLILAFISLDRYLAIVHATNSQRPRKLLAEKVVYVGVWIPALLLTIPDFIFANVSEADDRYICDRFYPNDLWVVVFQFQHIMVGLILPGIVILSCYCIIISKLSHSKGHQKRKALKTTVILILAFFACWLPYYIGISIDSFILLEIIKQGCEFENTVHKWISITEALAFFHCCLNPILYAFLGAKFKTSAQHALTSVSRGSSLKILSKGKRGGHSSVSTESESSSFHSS
Experimental: The anti-CXCR4 antibodies were titrated in a 1:3 serial dilution series resulting in a concentration range from 100 nM to 1 pM and allowed to bind to labeled CEM cells at a density of 10 million cells per ml. As a negative control, an irrelevant antibody of the same isotype was used. Recombinant human CXCL12α (Peprotech) was added at 5 nM at 30 μl per well to the lower chamber of a 96 well Neuroprobe migration plate with 5.7 mm diameter filters per well. Each well contains […]. Labeled CEM cells with and without antibody were loaded onto the filters at a concentration of 0.5 million cells per well in a volume of 50 μl. The migration plate was incubated at 37° C. for 2.5 hours. […] The chemiluminescent signal was recorded on a Fusion instrument.

[10] = biological target: T1, CXCR4; experiment: Competition with FITC-labeled F9 for binding to CEM cells; settings: 300 nM to 5 pM
Experimental: To determine the ability of a panel of anti-CXCR4 antibodies to compete for binding to CXCR4, competition studies were performed. […] The mixture of antibodies was then added to CEM cells and allowed to bind.

[11] = tested on: Ramos tumor cells; experiment: Ramos cell proliferation, 3H-thymidine incorporation; type: cell-based, human; settings: 10^−3 to 300 nM; 72 hours
Experimental: In this example, the ability of the anti-CXCR4 human antibodies to inhibit proliferation of Ramos tumor cells (a human Burkitt's lymphoma cell line) in vitro was examined. […] The cells were incubated with antibody for 72 hours, with ^3H-thymidine being added for the final 24 hours of incubation to allow for monitoring of cell proliferation. Following the incubation, incorporation of ^3H-thymidine by the cells was measured by standard techniques. The results are shown in the graph of FIG. 11A.

[12] = tested on: human umbilical vein endothelial cells (HuVEC); experiment: HuVEC capillary tube formation; type: cell-based; settings: HuVEC on MATRIGEL, 18 hours
Experimental: In this example, the ability of the anti-CXCR4 human antibodies to inhibit capillary tube formation by human umbilical vein endothelial cells (HuVEC) was examined […]® was diluted 1:1 with RPMI and plated onto the wells of a 96 well plate and allowed to polymerize for 30 minutes at 37° C. HuVEC (from Cambrex, cat. # CC-2519) at 80% confluence were trypsinized and resuspended at 1×10^6 cells per ml in RPMI with 0.5% FBS. Antibodies were well mixed with HuVEC at a final concentration of 3 mg/ml and allowed to incubate at room temperature for 30 minutes. An irrelevant antibody of the same isotype or media alone was used as a negative control. As a positive control of inhibition of tube formation, a mouse anti-human αvβ3 (CD51/CD61) antibody (R&D Systems, cat. # MAB3050) was used. HuVEC with or without antibodies were plated onto the […]®-coated wells and incubated at 37° C. for 18 hours.
The HuVEC incubated with media alone or with the isotype-matched control antibody formed capillary tubes resulting in the appearance of connected cells across the plate with 3-5 points of connection or branch points per cell. […] The cells appeared isolated and with few or no branch points.

[13] = biological target: T1, CXCR4; experiment: CXCL12-induced calcium flux in CEM cells (Calcium 3 dye); type: cell-based; settings: 50 nM CXCL12α
Description: As a negative control, an irrelevant antibody of the same isotype was used.

[14] = biological target: T1, CXCR4; experiment: 125I-CXCL12 binding competition on CEM cells (first experiment); settings: 100 pM 125I-CXCL12
Experimental: A comparison of anti-CXCR4 antibodies on blocking CXCL12 binding to CEM cells was performed by a standard radio-labeled ligand binding assay. The anti-CXCR4 antibodies were serially diluted 1:3 to yield a range of concentrations from 300 nM to 137 pM. […] An irrelevant antibody of the same isotype was used as a negative control.

Molecule: c1cc(CN2CCCNCCNCCCNCC2)ccc1CN1CCCNCCNCCCNCC1 [AMD3100, Plerixafor]
- inhibition of Ramos cell proliferation [1]: did not inhibit proliferation
- percent of cells Annexin V/PI double positive [2]: 2.7%
- percent of cells positive for Annexin V only [2]: 2.0%

Molecule: CC[C@@]1(O)C(=O)OCc2c1cc1n(c2=O)Cc2cc3ccccc3nc2-1 [Camptothecin]
- inhibition of Ramos cell proliferation ([1]; 10 μM): completely inhibited cell proliferation

Molecule: CC(C)C[C@H](NC(=O)[C@H](Cc1ccccc1)NC(=O)c1cnccn1)B(O)O [bortezomib, reference compound]
- median tumor growth inhibition ([3]; Day 24, compared to vehicle control, MDX-1338 10 mg/kg/dose IP, bortezomib 0.8 mg/kg/dose IV): 75%
- mean tumor growth inhibition ([4]; Day 44, compared to isotype control, MDX-1338 10 mg/kg, lenalidomide 50 mg/kg, bortezomib 0.8 mg/kg): 70%
- tumor growth inhibition [5]: Neither lenalidomide nor bortezomib alone inhibited tumor growth
- efficacy in MOLP8 tumors [6]: relatively resistant
- efficacy in inhibiting tumor growth [7]: marginal efficacy

Molecule: Nc1cccc2c1CN(C1CCC(=O)NC1=O)C2=O (stereo not shown) [lenalidomide, reference compound]
- efficacy in OPM-2 model ([3]; lenalidomide 50 mg/kg/dose IP): minimal efficacy
- mean tumor growth inhibition ([8]; Day 25, compared to isotype control, MDX-1338 10 mg/kg/dose, lenalidomide 100 mg/kg): 70%
- tumor growth inhibition ([8]; MM.1S): REVLIMID ® = 70%
- efficacy in RPMI-8226 model ([4]; 50 mg/kg): marginal efficacy
- tumor growth inhibition [5]: Neither lenalidomide nor bortezomib alone inhibited tumor growth
- tumor growth inhibition ([6]; MOLP8): alone = 35%
- efficacy in MOLP8 tumors [6]: relatively resistant
- efficacy in inhibiting tumor growth [7]: ineffective in inhibiting tumor growth

B1: E2: human anti-CXCR4 monoclonal antibody; VH SEQ ID NO: 28, VL SEQ ID NO: 32 (antibody, listed as Homo sapiens, V domains shown)
VH: EVQLVQSGGGLVQPGGSLRLSCAAAGFTFSSYSMNWVRQAPGKGLEWVSYISSRSRTIYYADSVKGRFTISRDNAKNSLYLQMNSLRDEDTAVYYCARDYGGQPPYHYYYGMDVWGQGTTVTVSS
VL: EIVLTQSPSSLSASVGDRVTITCRASQGISNWLAWYQQKPEKAPKSLIYAASSLQSGVPSRFSGSGSGTDFTLTISSLQPEDFATYYCQQYNSYPRTFGQGTKVEIK
- inhibition of CXCL12α-induced migration [9]: did not significantly inhibit migration
- ability to compete with F9 for binding to CEM cells [10]: able to compete with F9; also recorded: partial inhibition at high concentrations
- inhibition of Ramos cell proliferation (3H-thymidine incorporation) [11]: able to inhibit Ramos cell proliferation
- inhibition of capillary tube formation [12]: did not inhibit capillary tube formation
- inhibition of CXCL12α-induced calcium flux [13]: did not significantly inhibit
- blockade of CXCL12 binding to CXCR4 [14]: did not effectively block CXCL12 binding

B2: D1: human anti-CXCR4 monoclonal antibody; VH SEQ ID NO: 27, VL SEQ ID NO: 31 (antibody, listed as Homo sapiens, V domains shown)
VH: EVQLVQSGGGLVQPGGSLRLSCAAAGFTFSSYSMNWVRQAPGKGLEWVSYISSRSKTIYYADSVKGRFTISRDNARNSLYLQMNSLRDEDTAVYYCARDYGGQPPYYYYYGMDVWGQGTTVTVSS
VL: VIWVTQSPSSLSASVGDRVTITCRTSQGISSWLAWYQQKPEKAPELLIYAASSLQSGVPSRFSGSGSGTDFTLTISSLQPEDFATYYCQQYNSYPRTFGQGTKVEIK
- inhibition of CXCL12α-induced migration [9]: did not significantly inhibit migration
- ability to compete with F9 for binding to CEM cells [10]: able to compete with F9
